# Experimental data: PubChem BioAssay AID1996
# Residues, ends and D or L forms follow the SMILES beside them. *: point of attachment. Cbz = O=C(OCc1ccccc1)*
# Conditions: buffer; pH 7.4; 200.0 µM
row,SMILES,solubility kinetic
1,C=CCC(CC=C)(C(N)=O)c1ccccc1,31.6 µg/mL
2,COc1ccc(S(=O)(=O)NC2CCCCCC2)c(OC)c1,9.4 µg/mL
3,CC1CN(C(=S)Nc2ccc(Cl)cc2)CC(C)O1 (stereo not given),> 42.7 µg/mL
4,O=C(O)C(Sc1ccncn1)c1ccccc1 (stereo not given),26.4 µg/mL
5,CC1=CC(=C(C#N)C#N)C=C(C)N1CCC(C)C,1.7 µg/mL
6,COc1cccc2[nH]c3c(=O)[nH]cnc3c12,> 32.3 µg/mL
7,CC(C)N(C(=O)Cc1ccccc1[N+](=O)[O-])C(C)C,> 39.6 µg/mL
8,O=C(CC1CCCCC1)NCc1ccco1,> 33.2 µg/mL
9,C=CCc1ccccc1OCC(O)CN1CCOCC1 (stereo not given),> 41.6 µg/mL
10,Cc1cnc(NC(=O)CCc2ccccc2)s1,8.7 µg/mL
11,O=C(C1CCC1)N1CCN(S(=O)(=O)c2ccccc2)CC1,> 46.3 µg/mL
12,O=Nc1c(O)n(Cc2ccccc2)c2ccccc12,> 37.8 µg/mL
13,C/C(=N\O)c1ccc2c(c1)CC(C)O2 (stereo not given),> 28.7 µg/mL
14,CN(Cc1c(F)cccc1Cl)S(=O)(=O)c1cccs1,< 0.7 µg/mL
15,O=C(CCNS(=O)(=O)c1ccccc1)N1CCCC1,> 42.4 µg/mL
16,COc1cc(CNC(=O)C2CCCC2)cc(OC)c1OC,> 44 µg/mL
17,N#Cc1ccncc1S(=O)c1ccc(Cl)cc1 (stereo not given),> 39.4 µg/mL
18,Cc1ccc(C2(c3ccc(C)cc3)CC2C(=O)NC(C)C)cc1 (stereo not given),1 µg/mL
19,O=C1CCC(C(=O)Nc2ccccc2N2CCOCC2)=NN1,> 45.3 µg/mL
20,Cn1c(-c2ccccc2)c[n+]2c1CCCCC2.[Br-],> 46.1 µg/mL
21,O=[N+]([O-])c1ccc(Cl)c(NC(=S)N2CCCC2)c1,9.7 µg/mL
22,CC(=O)Nc1nc(C)c(C(C)C)s1,> 29.7 µg/mL
23,N#C/C(=C\c1cccnc1)C(=O)Nc1ccc(Cl)cc1,5.7 µg/mL
24,O=C(NC1CCN(Cc2ccccc2Cl)CC1)c1ccccc1,47.6 µg/mL
25,O=C(c1cc2cc(Br)ccc2s1)N1CCOCC1,45.8 µg/mL

row,SMILES,solubility kinetic
1,O=S(=O)(Nc1nc2ccccc2nc1Cl)c1ccc(F)cc1,> 50.7 µg/mL
2,COc1cccc(NC(=O)C2CCCN(S(C)(=O)=O)C2)c1 (stereo not given),> 46.9 µg/mL
3,CSc1ccc(CN2CCCCCC2)cc1,22.1 µg/mL
4,O=C(Nc1ccccc1F)C1COc2ccccc2O1 (stereo not given),25.6 µg/mL
5,Brc1ccc(-c2noc(-c3ccccn3)n2)o1,10.8 µg/mL
6,Nc1nc(NCCOCCO)nc(NC2CCCCC2)c1[N+](=O)[O-],> 51.1 µg/mL
7,O=C(COC(=O)c1ccco1)NC12CC3CC(CC(C3)C1)C2,2.2 µg/mL
8,Cc1nccn1Cc1ccccc1,24.7 µg/mL
9,CN(C)/C=C/C(=O)c1c(F)cccc1F,31.4 µg/mL
10,Cc1occc1-c1nnc(SCC(=O)NC2CC2)n1C,> 43.9 µg/mL
11,O=C(Nc1cccc(F)c1)C1CCN(C(=O)NCc2ccccc2)CC1,9.2 µg/mL
12,O=C(CSc1nnc(NC(=O)c2ccccc2F)s1)NC1CC1,> 52.9 µg/mL
13,COc1ccc(NC(=O)CNC(=O)C2CCCCC2)cc1OC,> 48.1 µg/mL
14,O=C(N/N=C/c1ccccn1)C(O)c1ccccc1 (stereo not given),> 38.3 µg/mL
15,CC(C)=CC(=O)N1CC[C@@H](N2CCN(c3ccccc3F)CC2)[C@H](O)C1,> 54.2 µg/mL
16,CC1CCC(N2CCN(c3ccc([N+](=O)[O-])cc3)CC2)CC1 (stereo not given),19.1 µg/mL
17,OCCCC1CCCCN1Cc1nc(Cc2ccccc2Cl)no1 (stereo not given),43.4 µg/mL
18,O=C(NCC1CCCO1)c1cc(-c2ccccc2)nc2ccccc12 (stereo not given),> 49.9 µg/mL
19,Cc1ccc(S(=O)(=O)N2CCCC(C(=O)NC3CC3)C2)cc1 (stereo not given),46.2 µg/mL
20,O=C(NC1CCCC1)C1CCN(C(=O)c2ccccc2Cl)CC1,> 50.2 µg/mL
21,O=S(=O)(NCc1nc(-c2ccccc2)no1)c1ccc(F)cc1,6.4 µg/mL
22,O=C(N/N=C\c1cccnc1)c1ccccc1O,> 36.2 µg/mL
23,COc1cc(C(=O)NC2CC(C)(C)NC(C)(C)C2)cc(OC)c1OC,> 52.6 µg/mL
24,O=[N+]([O-])c1ccc(COc2ncnc3ccccc23)cc1,27.7 µg/mL
25,O=C1CCCc2ccccc2N1Cc1ccc(F)cc1,30 µg/mL

# Results, then the compound that gave them:
row,solubility kinetic,SMILES
1,32.4 µg/mL,COc1ccccc1NC(=O)[C@@H]1CCCN1S(=O)(=O)c1ccc(Cl)cc1
2,2.8 µg/mL,Cc1ccc2c(C)c(C(=O)NCCc3ccco3)oc2c1C
3,5 µg/mL,O=C(COC(=O)/C=C/c1cccc(F)c1)Nc1ccc(Cl)cn1
4,18.3 µg/mL,COc1ccccc1COC(=O)N/C=C/c1ccco1
5,> 52.7 µg/mL,O=C(NCC(c1ccco1)N1CCCC1)c1cc(=O)[nH]c2ccccc12 (stereo not given)
6,20.7 µg/mL,O=C(COC(=O)C1(c2ccc(Cl)cc2)CCCC1)NCc1ccco1
7,48.3 µg/mL,CC(=O)c1ccc(NS(=O)(=O)c2ccc3c(c2)CCC(=O)N3)cc1
8,37.7 µg/mL,O=C(CSCc1c(F)cccc1F)Nc1ccccc1
9,7.4 µg/mL,O=C(COC(=O)c1ccc(S(=O)(=O)NCc2ccco2)cc1)NCc1ccccc1
10,22.2 µg/mL,CCOc1ccccc1C(=O)NC(C)CCc1ccccc1 (stereo not given)
11,> 44 µg/mL,CN(C)C(=O)c1ccc(-n2cnc3ccccc3c2=O)cc1
12,24.1 µg/mL,O=C(COC(=O)c1ccc(Br)c(S(=O)(=O)N2CCOCC2)c1)NCCc1ccccc1
13,29.3 µg/mL,CCOC(=O)CSc1[nH]c2cc(OC)ccc2c1[N+](=O)[O-]
14,> 43.9 µg/mL,CCCC1(c2ccccc2)NC(=O)N(C/C=C/Cl)C1=O (stereo not given)
15,49.9 µg/mL,C=CCNC(=O)c1cccc(NS(=O)(=O)c2ccc(Cl)cc2)c1
16,> 47.2 µg/mL,CC(C)(C)NC(=O)COC(=O)c1cc(Cl)ccc1[N+](=O)[O-]
17,28.6 µg/mL,CC1CN(c2nc(N(C)c3ccccc3)nc(N)c2[N+](=O)[O-])CC(C)O1 (stereo not given)
18,> 47.6 µg/mL,O=C(Nc1ccccc1C(F)(F)F)c1ccc2nccnc2c1
19,> 65.2 µg/mL,CN(CCO)CC(O)Cn1cnc2c1c(=O)n(C)c(=O)n2C.O=C(O)c1cccnc1 (stereo not given)
20,> 45.4 µg/mL,COc1ccc(C2CC(C)=C(C#N)S(=O)(=O)C2C#N)cc1 (stereo not given)
21,> 38.8 µg/mL,CC(C)Cn1cc(Cl)c(=O)n(CC(C)C)c1=O
22,> 31.1 µg/mL,Cn1cc(C(=O)CCl)c2ccccc21
23,> 48.1 µg/mL,CN(C(=O)COC(=O)c1ccc2ccccc2n1)c1ccccc1
24,47.5 µg/mL,Cc1ccc(NC(=O)CC(C)c2ccccc2)cc1S(=O)(=O)N1CCOCC1 (stereo not given)

row,solubility kinetic,SMILES
1,37.5 µg/mL,CCOc1ccc(S(=O)(=O)NC2CCCCC2C)cc1 (stereo not given)
2,> 52.4 µg/mL,CN1CCN(C(=O)c2ccc(-c3ccc(Br)cc3)o2)CC1
3,1.4 µg/mL,COc1c(Cl)cccc1-c1cn2ccc(C)cc2n1
4,1.6 µg/mL,CCOC(=O)c1c(C)nsc1NC(=O)c1ccco1
5,31.9 µg/mL,COc1ccc2c(c1)c(C)cc[n+]2Cc1ccccc1.[Cl-]
6,> 45.3 µg/mL,CC(C)n1cc(/C(N)=N/O)c(=O)n(Cc2ccccc2)c1=O
7,> 58.7 µg/mL,COC(=O)C(C)NC(=O)C1CCCN1C(=O)CNC(=O)OCc1ccccc1 (stereo not drawn) (Cbz-Gly-Pro-Ala-OMe; configuration not given here)
8,29.6 µg/mL,CN=C(Nc1ccc(C(=O)OC)s1)c1ccccc1
9,> 45.2 µg/mL,O=C(Cn1c(=O)cnc2ccccc21)NC1CCC(O)CC1 (stereo not given)
10,> 34.9 µg/mL,O=C(Nc1ccncc1)c1ccc(Cl)cc1
11,14.2 µg/mL,CCc1ccc(C(=O)CSc2nc(N)cc(=O)[nH]2)cc1
12,30.7 µg/mL,CC1Cc2ccccc2N1CC(=O)NC(=O)NC(C)(C)C (stereo not given)
13,> 49.9 µg/mL,Cc1cc(C)c(C)c(S(=O)(=O)N(C)CCc2ccccn2)c1C
14,11.8 µg/mL,CC(C)c1ccc(C(=O)OCC(=O)NC2CCCC2)cc1
15,1.6 µg/mL,CC(C)Cn1c(=S)[nH]c2ccccc2c1=O
16,> 46.6 µg/mL,Cc1ccc(N(C(C)C(=O)N2CCCC2)S(C)(=O)=O)cc1 (stereo not given)
17,> 49.6 µg/mL,CCC12CN3CCN(CC(C3)/C1=N\NC(=O)c1ccc(F)cc1)C2
18,< 0.6 µg/mL,COc1ccc(-c2csc(-c3ccc(O)cc3)n2)cc1
19,51 µg/mL,COC(c1ccccc1)(c1ccccc1)C(Oc1nccc(C)n1)C(=O)O (stereo not given)
20,36.9 µg/mL,CCOc1ccc(NC(=O)Nc2ccon2)cc1
21,< 0.4 µg/mL,COc1cc(NC(=O)c2ccccc2)c(OC)cc1NC(=O)Cc1ccc(C)cc1
22,4.4 µg/mL,CCCCOc1ccc(C(=O)OCC(=O)c2c(N)n(C)c(=O)n(C)c2=O)cc1
23,> 52.5 µg/mL,CC1CN(C(=O)c2ccc(COc3ccccc3Cl)o2)CC(C)O1 (stereo not given)
24,16.4 µg/mL,CCCc1cc(=S)n2c([nH]c3ccccc32)c1C#N

row,solubility kinetic,SMILES
1,> 42.8 µg/mL,Cc1ccc(C(=O)N/C(=C\c2ccc(C)o2)C(=O)O)cc1
2,55.5 µg/mL,Cc1ccc(NC(=O)CN2C(=O)NC(C)(CC(C)C)C2=O)c(Br)c1 (stereo not given)
3,< 0.3 µg/mL,Cc1nc(-c2cc(-c3ccc(Cl)cc3)no2)cs1
4,0.6 µg/mL,CCCCc1noc(-c2c(-c3ccccc3Cl)noc2C)n1
5,1.4 µg/mL,CCCc1nc(SCC(=O)c2ccc(OC)cc2)c2ccccc2n1
6,2 µg/mL,O=C(Nc1ccccc1C(=O)Nc1ccccn1)c1ccccc1F
7,> 44.8 µg/mL,Cc1cccc(N2CCN(C(=O)c3ccnn3C)CC2)c1C
8,3 µg/mL,CCc1c(C(=O)Nc2ccc(C)c(C)c2)[nH]c(C)c1C(C)=O
9,8 µg/mL,Cc1ccc(S(=O)(=O)/N=C(/Nc2nc(C)cs2)c2ccccc2)cc1
10,< 0.2 µg/mL,C=CCn1c(=O)c(C(=O)Nc2cc(C)ccn2)c(O)c2ccccc21
11,> 44.3 µg/mL,O=C(NCC1CCCO1)c1c(O)nc2sccn2c1=O (stereo not given)
12,> 52.9 µg/mL,Nc1cc(=O)[nH]c(SCC(=O)Nc2ccccc2-c2ccccc2)n1
13,3.9 µg/mL,CCS(=O)(=O)c1ccc(O)c(NC(=O)/C=C/c2ccc(Cl)cc2)c1
14,< 0.3 µg/mL,CCOC(=O)c1cc(C#N)c(Nc2ccccc2OC)nc1C(F)(F)F
15,> 36.8 µg/mL,COc1cccc2c3c(c(=O)[nH]c12)CC(C)(C)O3
16,0.7 µg/mL,CC(=O)Nc1ccc2nc(NC(=O)CCc3ccccc3)sc2c1
17,> 42.5 µg/mL,Cc1ccnc(N2C(=O)c3ccc([N+](=O)[O-])cc3C2=O)c1
18,> 39.6 µg/mL,O=C(Nc1ncccc1O)c1ccc2ccccc2c1
19,19.1 µg/mL,COC(=O)c1sccc1NC(=O)Nc1cccc(C(C)=O)c1
20,> 49.8 µg/mL,O=C(CNC(=O)c1ccccc1)OCC(=O)c1ccccc1Cl
21,6.8 µg/mL,Cc1ccc(OCCNC(=O)CNC(=O)c2ccc(C)cc2)cc1
22,> 37.3 µg/mL,O=C(Nc1ccccc1Cl)c1cc[n+]([O-])cc1
